{"source": "patent US4471131A", "about": "“Novel silyl esters of N-phosphonomethylglycine” (Monsanto Company, priority 1983, dated 1984)", "experiment_in_all_cases": "post-emergence herbicidal activity, greenhouse", "format_in_all_cases": "in vivo", "key": {"Morningglory": {"tested_on": "Morningglory", "settings": "Table III, formulated in anhydrous tetrahydrofuran", "from_the_text": "(§1) A good grade of top soil is placed in aluminum pans having holes in the bottom and compacted to a depth of 0.95 to 1.27 cm. from the top of the pan. A predetermined number of seeds of each of several dicotyledonous and moncotyledonous annual plant species and/or vegetative propagules for the perennial plant species were placed on the soil and pressed into the soil surface. The seeds and/or vegetative propagules are covered with soil and leveled. The pans are then placed on a sand bench in the greenhouse and watered from below as needed. After the plants reach the desired age (two to three weeks), each pan, except for the control pans, is removed individually to a spraying chamber and sprayed by means of an atomizer at the rates noted. In the spray solution is an amount of an emulsifying agent mixture to give a spray solution or suspension which contains about 0.4% by weight of the emulsifier. The spray solution or suspension contains a sufficient amount of the candidate chemical in order to give application rates corresponding to those set forth in the tables. The pans were returned to the greenhouse and watered as before and the injury to the plants as compared to the control is observed at approximately two and four weeks and the results recorded. In the tables, WAT means \"weeks after treatment.\"\n(§2) The post-emergent herbicidal activity index used in Tables II and III is as follows:\n(§3) The plant species utilized in these tests are identified by letter in accordance with the following legend: […]"}, "Panicum Spp": {"tested_on": "Panicum Spp", "settings": "Table III, formulated in anhydrous tetrahydrofuran", "from_the_text": "as §1, §2, §3"}, "Pennsylvania Smartweed": {"tested_on": "Pennsylvania Smartweed", "settings": "formulated in anhydrous tetrahydrofuran", "from_the_text": "as §1, §2, §3"}, "Quackgrass": {"tested_on": "Quackgrass", "settings": "Table II, formulated in anhydrous tetrahydrofuran", "from_the_text": "as §1, §2, §3"}, "Rice": {"tested_on": "Rice", "settings": "Table III, formulated in anhydrous tetrahydrofuran", "from_the_text": "as §1, §2, §3"}, "Soybean": {"tested_on": "Soybean", "settings": "Table III, formulated in anhydrous tetrahydrofuran", "from_the_text": "as §1, §2, §3"}, "Sugar Beet": {"tested_on": "Sugar Beet", "settings": "Table III, formulated in anhydrous tetrahydrofuran", "from_the_text": "as §1, §2, §3"}, "Velvetleaf": {"tested_on": "Velvetleaf", "settings": "formulated in anhydrous tetrahydrofuran", "from_the_text": "as §1, §2, §3"}, "Wild Buckwheat": {"tested_on": "Wild Buckwheat", "settings": "Table III, formulated in anhydrous tetrahydrofuran", "from_the_text": "as §1, §2, §3"}, "Yellow Nutsedge": {"tested_on": "Yellow Nutsedge", "settings": "Table II, formulated in anhydrous tetrahydrofuran", "from_the_text": "as §1, §2, §3"}}, "data": [{"smiles": "CCCCOC(=O)CNCP(=O)(O)O[Si](C)(C)C(C)(C)C", "note": "[Ex. 3, Glycine, N-((([(1,1-Dimethylethyl)Dimethylsilyl]oxy)Hydroxyphosphinyl)Methyl)-, Butyl Ester]", "values": [{"measurement": "Plant Response Index (D)", "setting": "Morningglory; 2 WAT, 1.1 kg/h", "result": "2 (50-74% inhibition)"}, {"measurement": "Plant Response Index (D)", "setting": "Morningglory; 2 WAT, 5.6 kg/h", "result": "2 (50-74% inhibition)"}, {"measurement": "Plant Response Index (D)", "setting": "Morningglory; 2 WAT, .28 kg/h", "result": "1 (25-49% inhibition)"}, {"measurement": "Plant Response Index (D)", "setting": "Morningglory; 4 WAT, 1.1 kg/h", "result": "2 (50-74% inhibition)"}, {"measurement": "Plant Response Index (D)", "setting": "Morningglory; 4 WAT, 5.6 kg/h", "result": "2 (50-74% inhibition)"}, {"measurement": "Plant Response Index (D)", "setting": "Morningglory; 4 WAT, .28 kg/h", "result": "1 (25-49% inhibition)"}, {"measurement": "Plant Response Index (S)", "setting": "Panicum Spp; 2 WAT, 1.1 kg/h", "result": "1 (25-49% inhibition)"}, {"measurement": "Plant Response Index (S)", "setting": "Panicum Spp; 2 WAT, 5.6 kg/h", "result": "3 (75-99% inhibition)"}, {"measurement": "Plant Response Index (S)", "setting": "Panicum Spp; 2 WAT, .28 kg/h", "result": "1 (25-49% inhibition)"}, {"measurement": "Plant Response Index (S)", "setting": "Panicum Spp; 4 WAT, 1.1 kg/h", "result": "2 (50-74% inhibition)"}, {"measurement": "Plant Response Index (S)", "setting": "Panicum Spp; 4 WAT, 5.6 kg/h", "result": "3 (75-99% inhibition)"}, {"measurement": "Plant Response Index (S)", "setting": "Panicum Spp; 4 WAT, .28 kg/h", "result": "1 (25-49% inhibition)"}, {"measurement": "Plant Response Index (F)", "setting": "Pennsylvania Smartweed; Table II, 2 WAT, 5.6 kg/h", "result": "1 (25-49% inhibition)"}, {"measurement": "Plant Response Index (F)", "setting": "Pennsylvania Smartweed; Table II, 2 WAT, 11.2 kg/h", "result": "2 (50-74% inhibition)"}, {"measurement": "Plant Response Index (F)", "setting": "Pennsylvania Smartweed; Table II, 4 WAT, 5.6 kg/h", "result": "1 (25-49% inhibition)"}, {"measurement": "Plant Response Index (F)", "setting": "Pennsylvania Smartweed; Table II, 4 WAT, 11.2 kg/h", "result": "3 (75-99% inhibition)"}, {"measurement": "Plant Response Index (F)", "setting": "Pennsylvania Smartweed; Table III, 2 WAT, 1.1 kg/h", "result": "2 (50-74% inhibition)"}, {"measurement": "Plant Response Index (F)", "setting": "Pennsylvania Smartweed; Table III, 2 WAT, 5.6 kg/h", "result": "3 (75-99% inhibition)"}, {"measurement": "Plant Response Index (F)", "setting": "Pennsylvania Smartweed; Table III, 2 WAT, .28 kg/h", "result": "2 (50-74% inhibition)"}, {"measurement": "Plant Response Index (F)", "setting": "Pennsylvania Smartweed; Table III, 4 WAT, 1.1 kg/h", "result": "2 (50-74% inhibition)"}, {"measurement": "Plant Response Index (F)", "setting": "Pennsylvania Smartweed; Table III, 4 WAT, 5.6 kg/h", "result": "3 (75-99% inhibition)"}, {"measurement": "Plant Response Index (F)", "setting": "Pennsylvania Smartweed; Table III, 4 WAT, .28 kg/h", "result": "2 (50-74% inhibition)"}, {"measurement": "Plant Response Index (H)", "setting": "Quackgrass; 2 WAT, 5.6 kg/h", "result": "0 (0-24% inhibition)"}, {"measurement": "Plant Response Index (H)", "setting": "Quackgrass; 2 WAT, 11.2 kg/h", "result": "3 (75-99% inhibition)"}, {"measurement": "Plant Response Index (H)", "setting": "Quackgrass; 4 WAT, 5.6 kg/h", "result": "1 (25-49% inhibition)"}, {"measurement": "Plant Response Index (H)", "setting": "Quackgrass; 4 WAT, 11.2 kg/h", "result": "3 (75-99% inhibition)"}, {"measurement": "Plant Response Index (O)", "setting": "Rice; 2 WAT, 1.1 kg/h", "result": "0 (0-24% inhibition)"}, {"measurement": "Plant Response Index (O)", "setting": "Rice; 2 WAT, 5.6 kg/h", "result": "1 (25-49% inhibition)"}, {"measurement": "Plant Response Index (O)", "setting": "Rice; 2 WAT, .28 kg/h", "result": "1 (25-49% inhibition)"}, {"measurement": "Plant Response Index (O)", "setting": "Rice; 4 WAT, 1.1 kg/h", "result": "1 (25-49% inhibition)"}, {"measurement": "Plant Response Index (O)", "setting": "Rice; 4 WAT, 5.6 kg/h", "result": "2 (50-74% inhibition)"}, {"measurement": "Plant Response Index (O)", "setting": "Rice; 4 WAT, .28 kg/h", "result": "0 (0-24% inhibition)"}, {"measurement": "Plant Response Index (L)", "setting": "Soybean; 2 WAT, 1.1 kg/h", "result": "2 (50-74% inhibition)"}, {"measurement": "Plant Response Index (L)", "setting": "Soybean; 2 WAT, 5.6 kg/h", "result": "2 (50-74% inhibition)"}, {"measurement": "Plant Response Index (L)", "setting": "Soybean; 2 WAT, .28 kg/h", "result": "1 (25-49% inhibition)"}, {"measurement": "Plant Response Index (L)", "setting": "Soybean; 4 WAT, 1.1 kg/h", "result": "1 (25-49% inhibition)"}, {"measurement": "Plant Response Index (L)", "setting": "Soybean; 4 WAT, 5.6 kg/h", "result": "2 (50-74% inhibition)"}, {"measurement": "Plant Response Index (L)", "setting": "Soybean; 4 WAT, .28 kg/h", "result": "0 (0-24% inhibition)"}, {"measurement": "Plant Response Index (M)", "setting": "Sugar Beet; 2 WAT, 1.1 kg/h", "result": "1 (25-49% inhibition)"}, {"measurement": "Plant Response Index (M)", "setting": "Sugar Beet; 2 WAT, 5.6 kg/h", "result": "2 (50-74% inhibition)"}, {"measurement": "Plant Response Index (M)", "setting": "Sugar Beet; 2 WAT, .28 kg/h", "result": "0 (0-24% inhibition)"}, {"measurement": "Plant Response Index (M)", "setting": "Sugar Beet; 4 WAT, 1.1 kg/h", "result": "1 (25-49% inhibition)"}, {"measurement": "Plant Response Index (M)", "setting": "Sugar Beet; 4 WAT, 5.6 kg/h", "result": "3 (75-99% inhibition)"}, {"measurement": "Plant Response Index (M)", "setting": "Sugar Beet; 4 WAT, .28 kg/h", "result": "0 (0-24% inhibition)"}, {"measurement": "Plant Response Index (C)", "setting": "Velvetleaf; Table II, 2 WAT, 5.6 kg/h", "result": "0 (0-24% inhibition)"}, {"measurement": "Plant Response Index (C)", "setting": "Velvetleaf; Table II, 2 WAT, 11.2 kg/h", "result": "1 (25-49% inhibition)"}, {"measurement": "Plant Response Index (C)", "setting": "Velvetleaf; Table II, 4 WAT, 5.6 kg/h", "result": "1 (25-49% inhibition)"}, {"measurement": "Plant Response Index (C)", "setting": "Velvetleaf; Table II, 4 WAT, 11.2 kg/h", "result": "2 (50-74% inhibition)"}, {"measurement": "Plant Response Index (C)", "setting": "Velvetleaf; Table III, 2 WAT, 1.1 kg/h", "result": "2 (50-74% inhibition)"}, {"measurement": "Plant Response Index (C)", "setting": "Velvetleaf; Table III, 2 WAT, 5.6 kg/h", "result": "3 (75-99% inhibition)"}, {"measurement": "Plant Response Index (C)", "setting": "Velvetleaf; Table III, 2 WAT, .28 kg/h", "result": "1 (25-49% inhibition)"}, {"measurement": "Plant Response Index (C)", "setting": "Velvetleaf; Table III, 4 WAT, 1.1 kg/h", "result": "2 (50-74% inhibition)"}, {"measurement": "Plant Response Index (C)", "setting": "Velvetleaf; Table III, 4 WAT, 5.6 kg/h", "result": "4 (100% inhibition)"}, {"measurement": "Plant Response Index (C)", "setting": "Velvetleaf; Table III, 4 WAT, .28 kg/h", "result": "2 (50-74% inhibition)"}, {"measurement": "Plant Response Index (Q)", "setting": "Wild Buckwheat; 2 WAT, 1.1 kg/h", "result": "2 (50-74% inhibition)"}, {"measurement": "Plant Response Index (Q)", "setting": "Wild Buckwheat; 2 WAT, 5.6 kg/h", "result": "3 (75-99% inhibition)"}, {"measurement": "Plant Response Index (Q)", "setting": "Wild Buckwheat; 2 WAT, .28 kg/h", "result": "1 (25-49% inhibition)"}, {"measurement": "Plant Response Index (Q)", "setting": "Wild Buckwheat; 4 WAT, 1.1 kg/h", "result": "2 (50-74% inhibition)"}, {"measurement": "Plant Response Index (Q)", "setting": "Wild Buckwheat; 4 WAT, 5.6 kg/h", "result": "4 (100% inhibition)"}, {"measurement": "Plant Response Index (Q)", "setting": "Wild Buckwheat; 4 WAT, .28 kg/h", "result": "0 (0-24% inhibition)"}, {"measurement": "Plant Response Index (G)", "setting": "Yellow Nutsedge; 2 WAT, 5.6 kg/h", "result": "1 (25-49% inhibition)"}, {"measurement": "Plant Response Index (G)", "setting": "Yellow Nutsedge; 2 WAT, 11.2 kg/h", "result": "1 (25-49% inhibition)"}, {"measurement": "Plant Response Index (G)", "setting": "Yellow Nutsedge; 4 WAT, 5.6 kg/h", "result": "2 (50-74% inhibition)"}, {"measurement": "Plant Response Index (G)", "setting": "Yellow Nutsedge; 4 WAT, 11.2 kg/h", "result": "2 (50-74% inhibition)"}]}]}
